Test results as given in US20220023216A1, “INSTANTLY SOLUBLE PARTICLE AND METHOD FOR PRODUCING THE SAME” (RICOH COMPANY, LTD., priority 2019, published 2022).
In brackets after ≈: the same amount, converted by molar mass. One block for each compound: values may come before it.

Columns and labels:
Assay type in all cases: physicochemical
[1] = Dissolution test of Test Example 2 (imatinib, water); details: water 100 mL, 25 degrees Celsius, 50 rpm
Protocol: (§1) An active pharmaceutical ingredient of imatinib (7.35 mg) and the particle 10 (73.5 mg) obtained in Example 10 were each added to water (100 mL), and were dissolved for 30 minutes under the following conditions: a temperature of the solution: 25 degrees Celsius; and a stirring rate: 50 rpm. Then, an amount of the pharmaceutical agent dissolved over time was quantified through liquid chromatography (detector: UV/Vis detector).

[2] = Solubility of the poorly water-soluble (pharmaceutical) compound, Table 1; details: poorly-water-soluble compound (pharmaceutical compound) itself
[3] = Dissolution test of Test Example 3 (ibuprofen, physiological saline); details: physiological saline 100 mL, 25 degrees, 50 rpm
Source text: Then, an amount of the pharmaceutical agent dissolved over time was quantified through liquid chromatography (detector: UV/Vis detector).

[4] = Dissolution test of Test Example 1 (erlotinib, physiological saline); details: physiological saline 100 mL, 25 degrees Celsius, 50 rpm
Protocol: as §1, with “of erlotinib (1.6” for “of imatinib (7.35”, “particle 9 (16” for “particle 10 (73.5”, “Example 9” for “Example 10”, “to a physiological saline solution (0.9 w/v %)” for “to water”, “(100 mL) as a solvent,” for “(100 mL),”

Dissolution amount ([1]; 1 min): 9.7 mg/mL
Dissolution amount ([1]; 3 min): 13.4 mg/mL
Dissolution amount ([1]; 5 min): 18 mg/mL
Dissolution amount ([1]; 15 min): 19.8 mg/mL
Dissolution amount ([1]; 30 min): 13.7 mg/mL
SMILES: Cc1ccc(NC(=O)c2ccc(CN3CCN(C)CC3)cc2)cc1Nc1nccc(-c2cccnc2)n1 [Imatinib, imatinib]

solubility [2]: 20 µg/mL (≈ 97 µM)
Dissolution amount ([3]; 2 min): Not detected
Dissolution amount ([3]; 5 min): Not detected
Dissolution amount ([3]; 15 min): 5.4 mg/mL
Dissolution amount ([3]; 30 min): 9.7 mg/mL
SMILES: CC(C)Cc1ccc(C(C)C(=O)O)cc1 (stereo not drawn) [Ibuprofen, ibuprofen]

Dissolution amount ([4]; 1 min): Not detected
Dissolution amount ([4]; 3 min): 0.8 mg/mL
Dissolution amount ([4]; 5 min): 1 mg/mL
Dissolution amount ([4]; 15 min): 1.1 mg/mL
Dissolution amount ([4]; 30 min): 2 mg/mL
SMILES: C#Cc1cccc(Nc2ncnc3cc(OCCOC)c(OCCOC)cc23)c1 [Erlotinib, erlotinib]
